The subject of experiment [1] is Aβ40 in conditioned medium of cells stably expressing Amyloid Precursor Protein (APP). Put plainly: In vitro BACE cell-based assay (HEK cell assay, Aβ40 sandwich ELISA). As to conditions: Homo sapiens, HEK293; average IC50, Aβ40, 24 h incubation. As for the experimental part: In Vitro BACE Cell-Based Assay
The cell-based assay measures inhibition or reduction of Aβ40 in conditioned medium of test compound treated cells expressing amyloid precursor protein.
Cells stably expressing Amyloid Precursor Protein (APP) were plated at a density of 40K cells/well in 96 well plates (Costar). The cells were cultivated for 24 hours at 37° C. and 5% CO2 in DMEM supplemented with 10% FBS. The test compounds were then added to cells in 10-point dose response concentrations with the starting concentration being either 100 μM or 10 μM. The compounds were diluted from stock solutions in DMSO and the final DMSO concentration of the test compounds on cells was 0.1%. After 24 h of incubation with the test compounds the supernatant conditioned media was collected and the Aβ 40 levels were determined using a sandwich ELISA. The IC50 of the compound was calculated from the percent of control or percent inhibition of Aβ 40 as a function of the concentration of the test compound.
The sandwich ELISA to detect Aβ 40 was performed in 96 well microtiter plates, which were pre-treated with goat anti-rabbit IgG (Pierce). The capture and detecting antibody pair that were used to detect Aβ 40 from cell supernatants were affinity purified pAb40 (Biosource) and biotinylated 6E10 (Signet Labs Inc.), respectively. The optimal concentration for the pAb40 antibody was 3 μg/ml in Superblock/TBS (Pierce) that was supplemented with 0.05% Tween 20 (Sigma).
Cellular supernatants were incubated with the capture antibody for 3 h at 4° C., followed by 3 wash steps in TBS-tween (0.05%). The detecting antibody incubation was for 2 h at 4° C., again followed by the wash steps as described previously. The final readout of the ELISA is Time-Resolved Fluorescence (counts per minute) using Delfia reagents Streptavidin-Europium and Enhancement solutions (Perkin Elmer) and the Victor 2 multilabel counter (Perkin Elmer).

Another experiment has as its target Cathepsin D (Homo sapiens (Human), UniProt P07339). Kind of experiment: In vitro enzymatic Cat D (Cathepsin D) FRET assay. In kind it is biochemical. As to conditions: average IC50. As to the method: In Vitro Enzymatic Cat D (Cathepsin D) FRET (Fluorescence Resonance Energy Transfer) Assay
Recombinant CathepsinD was expressed in CHO cells. The assay buffer for CathepsinD is 0.05 M citrate pH 3.5, 10% DMSO final, 5 mM CHAPS. […] The assays are effectively started by the addition of different FRET substrates (20 nM for CathepsinD) and the combination is incubated for one hour. The FRET assay is terminated with by addition of Tris buffer, which raises the pH to neutrality, and the fluorescence is determined. The FRET substrate is a peptide with commercially available fluorophore and quencher, on opposite sides of the BACE cleavage site. […] Proteolytic cleavage of the FRET substrate releases quenching of fluorescence (CathepsinD excitation 500 nm and emission 580 nm).

For experiment [2], the target named is BACE 1 (beta secretase enzyme) (Homo sapiens (Human), UniProt P56817). Put plainly: In vitro enzymatic BACE FRET assay. Conditions: average IC50. The class given is biochemical. As for the experimental part: In Vitro Enzymatic BACE FRET (Fluorescence Resonance Energy Transfer) Assay
Sequence of BACE 1 (beta secretase enzyme) (P56817 46-501): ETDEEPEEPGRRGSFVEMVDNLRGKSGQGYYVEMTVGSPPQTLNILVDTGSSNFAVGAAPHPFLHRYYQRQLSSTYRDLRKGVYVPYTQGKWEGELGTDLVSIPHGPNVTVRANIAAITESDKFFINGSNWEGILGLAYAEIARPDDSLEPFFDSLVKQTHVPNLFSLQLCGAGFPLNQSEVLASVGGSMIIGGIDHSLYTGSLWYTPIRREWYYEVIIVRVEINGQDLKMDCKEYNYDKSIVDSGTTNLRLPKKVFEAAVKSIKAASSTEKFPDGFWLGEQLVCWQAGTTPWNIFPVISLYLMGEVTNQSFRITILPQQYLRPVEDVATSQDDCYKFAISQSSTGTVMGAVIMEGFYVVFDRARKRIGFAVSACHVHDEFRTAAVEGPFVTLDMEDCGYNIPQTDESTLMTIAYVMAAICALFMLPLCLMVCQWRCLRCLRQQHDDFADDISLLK
The assay buffer used in this screen is 0.05 M acetate, pH 4.2, 10% DMSO final, 100 uM genapol (which is a nonionic detergent, below its Critical Micelle Concentration). […] This assay is effectively started by the addition of FRET substrate (50 nM) and the combination is incubated for one hour. The FRET assay is terminated with by addition of Tris buffer, which raises the pH to neutrality, and the fluorescence is determined. The FRET substrate is a peptide with commercially available fluorophore and quencher, on opposite sides of the BACE cleavage site. Proteolytic cleavage of the FRET substrate releases quenching of fluorescence (excitation […] and […]).

Some results are limits rather than exact numbers.

Sequence of Cathepsin D (P07339 65-412, species assumed): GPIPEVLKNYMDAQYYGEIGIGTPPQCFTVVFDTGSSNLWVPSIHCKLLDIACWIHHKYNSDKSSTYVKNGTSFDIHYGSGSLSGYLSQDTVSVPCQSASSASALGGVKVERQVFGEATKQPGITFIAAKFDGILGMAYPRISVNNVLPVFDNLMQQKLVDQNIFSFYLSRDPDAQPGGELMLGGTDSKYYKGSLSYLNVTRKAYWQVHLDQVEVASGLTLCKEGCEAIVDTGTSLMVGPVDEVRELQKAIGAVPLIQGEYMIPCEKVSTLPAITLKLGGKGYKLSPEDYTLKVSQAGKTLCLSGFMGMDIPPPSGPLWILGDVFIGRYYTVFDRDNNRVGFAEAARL

One may read the IC50 as the concentration needed to halve the response being measured. As for `COc1cc(F)c2c(c1)[C@]1(CCSC(N)=N1)c1cc(NC(=O)c3ccc(Cl)cn3)ccc1O2` [Example 32, N-((4S)-2-amino-5′-fluoro-7′-methoxy-5,6-dihydrospiro[1,3-thiazine-4,9′-xanthen]-2′-yl)-5-chloro-2-pyridinecarboxamide], the IC50 amounted to 31.8 nM in experiment [1] and 350 µM on Cathepsin D.
In the same order, the values of `NC1=N[C@@]2(CCO1)c1cc(NC(=O)c3ccc(Cl)cn3)ccc1Oc1c2cc(Cl)nc1F` [Example 38, N-((5S)-2′-amino-3-chloro-1-fluoro-5′,6′-dihydrospiro[chromeno[2,3-c]pyridine-5,4′-[1,3]oxazin]-7-yl)-5-chloro-2-pyridinecarboxamide] are 31 nM and > 400 µM.
On the same counts, the results for `Cc1cccnc1Nc1ccc2c(c1)[C@@]1(CCOC(N)=N1)c1cc(Cl)nc(F)c1O2` [Example 41, (5S)-3-chloro-1-fluoro-N~7~-(3-methyl-2-pyridinyl)-5′,6′-dihydrospiro[chromeno[2,3-c]pyridine-5,4′-[1,3]oxazine]-2′,7-diamine] are 279 nM and 386 µM.
In the same order, the values of `COc1cc(F)c2c(c1)[C@]1(CCOC(N)=N1)c1cc(NC(=O)c3ccc(Cl)cn3)ccc1O2` [Example 42, N-((4S)-2-amino-5′-fluoro-7′-methoxy-5,6-dihydrospiro[1,3-oxazine-4,9′-xanthen]-2′-yl)-5-chloro-2-pyridinecarboxamide] are 20.5 nM and > 400 µM.
For the molecule `COc1cnc(C(=O)Nc2ccc3c(c2)[C@@]2(CCOC(N)=N2)c2cc(Cl)nc(F)c2O3)cn1` [Example 47, N-((5S)-2′-amino-3-chloro-1-fluoro-5′,6′-dihydrospiro[chromeno[2,3-c]pyridine-5,4′-[1,3]oxazin]-7-yl)-5-methoxy-2-pyrazinecarboxamide], the half-inhibitory concentration (IC50) at Cathepsin D worked out at 335 µM.
Consider `CC#CCOc1cnc(C(=O)Nc2ccc3c(c2)[C@@]2(CCOC(N)=N2)c2cc(Cl)nc(F)c2O3)cn1` [Example 48, N-((5S)-2′-amino-3-chloro-1-fluoro-5′,6′-dihydrospiro[chromeno[2,3-c]pyridine-5,4′-[1,3]oxazin]-7-yl)-5-(2-butyn-1-yloxy)-2-pyrazinecarboxamide], for which the IC50 in experiment [1] came out at 0.3 nM; on Cathepsin D, 151 µM.
In the same order, the values of `COc1cnc(C(=O)Nc2ccc3c(c2)[C@@]2(CCOC(N)=N2)c2cc(C4CCOCC4)cc(F)c2O3)cn1` [Example 61, N-((4S)-2-amino-5′-fluoro-7′-(tetrahydro-2H-pyran-4-yl)-5,6-dihydrospiro[1,3-oxazine-4,9′-xanthen]-2′-yl)-5-methoxy-2-pyrazinecarboxamide] are 7.8 nM and 379 µM.
On to `N#Cc1ccc(C(=O)Nc2ccc3c(c2)[C@@]2(CCOC(N)=N2)c2cc(C4=CCOCC4)nc(F)c2O3)nc1` [Example 64, N-((5S)-2′-amino-3-(3,6-dihydro-2H-pyran-4-yl)-1-fluoro-5′,6′-dihydrospiro[chromeno[2,3-c]pyridine-5,4′-[1,3]oxazin]-7-yl)-5-cyano-2-pyridinecarboxamide], for which the IC50 in experiment [2] stood at 0.74 nM; in experiment [1] it was 0.039 nM.
With `COc1cc(F)c2c(c1)[C@]1(CCOC(N)=N1)c1cc(NC(=O)c3cnc(OC)cn3)ccc1O2` [Example 75, N-((4S)-2-amino-5′-fluoro-7′-methoxy-5,6-dihydrospiro[1,3-oxazine-4,9′-xanthen]-2′-yl)-5-methoxy-2-pyrazinecarboxamide], the IC50 was determined as 27 nM in experiment [1] and 400 µM on Cathepsin D.
On the same counts, the results for `COc1ccc(C(=O)Nc2ccc3c(c2)[C@@]2(CCOC(N)=N2)c2cc(OC)cc(F)c2O3)c(F)c1` [Example 77, N-((4S)-2-amino-5′-fluoro-7′-methoxy-5,6-dihydrospiro[1,3-oxazine-4,9′-xanthen]-2′-yl)-2-fluoro-4-methoxybenzamide] are 181 nM and 331 µM.
On to `Cc1nc(C(=O)Nc2ccc3c(c2)[C@@]2(CCOC(N)=N2)c2cc(C4=CCCOC4)nc(F)c2O3)cs1` [Example 85, N-((5S)-2′-amino-3-(5,6-dihydro-2H-pyran-3-yl)-1-fluoro-5′,6′-dihydrospiro[chromeno[2,3-c]pyridine-5,4′-[1,3]oxazin]-7-yl)-2-methyl-1,3-thiazole-4-carboxamide], for which the IC50 in experiment [2] is 0.9 nM; in experiment [1] it was 0.08 nM.
Take `NC1=N[C@@]2(CCO1)c1cc(NC(=O)c3ccc(Cl)cn3)ccc1Oc1ncc(-c3ccnc(F)c3)cc12` [Example 90, N-((5S)-2′-amino-3-(2-fluoro-4-pyridinyl)-5′,6′-dihydrospiro[chromeno[2,3-b]pyridine-5,4′-[1,3]oxazin]-7-yl)-5-chloro-2-pyridinecarboxamide]: the IC50 in experiment [1] amounted to 0.7 nM; at Cathepsin D, 401 µM.
As for `NC1=N[C@@]2(CCO1)c1cc(NC(=O)c3ccc(Cl)cn3)ccc1Oc1c2cc(-c2ccnc(F)c2)nc1F` [Example 91, N-((5S)-2′-amino-1-fluoro-3-(2-fluoro-4-pyridinyl)-5′,6′-dihydrospiro[chromeno[2,3-c]pyridine-5,4′-[1,3]oxazin]-7-yl)-5-chloro-2-pyridinecarboxamide], the IC50 in experiment [1] was determined as 0.4 nM; on Cathepsin D it was 400 µM.
As to `COc1nc(C2=CCOCC2)cc2c1Oc1ccc(NC(=O)c3ccc(F)cn3)cc1[C@@]21CCOC(N)=N1` [Example 96, N-((5S)-2′-amino-3-(3,6-dihydro-2H-pyran-4-yl)-1-methoxy-5′,6′-dihydrospiro[chromeno[2,3-c]pyridine-5,4′-[1,3]oxazin]-7-yl)-5-fluoro-2-pyridinecarboxamide], in experiment [1], the IC50 was found to be 8.8 nM.
For `COc1ccc(C(=O)Nc2ccc3c(c2)[C@@]2(CCOC(N)=N2)c2cc(-c4ccnc(F)c4)nc(F)c2O3)nc1` [Example 98, N-((5S)-2′-amino-1-fluoro-3-(2-fluoro-4-pyridinyl)-5′,6′-dihydrospiro[chromeno[2,3-c]pyridine-5,4′-[1,3]oxazin]-7-yl)-5-methoxy-2-pyridinecarboxamide], at Cathepsin D, the IC50 came to 400 µM.
With `Cc1nc(C(=O)Nc2ccc3c(c2)[C@@]2(CCOC(N)=N2)c2cc(-c4ccnc(F)c4)nc(F)c2O3)cs1` [Example 99, N-((5S)-2′-amino-1-fluoro-3-(2-fluoro-4-pyridinyl)-5′,6′-dihydrospiro[chromeno[2,3-c]pyridine-5,4′-[1,3]oxazin]-7-yl)-2-methyl-1,3-thiazole-4-carboxamide], the IC50 in experiment [2] turned out to be 0.8 nM; in experiment [1] it was 0.4 nM.
For the molecule `NC1=N[C@@]2(CCO1)c1cc(NC(=O)c3ccc(F)cn3)ccc1Oc1c(F)cc(-c3ccnc(F)c3)cc12` [Example 102, N-((4S)-2-amino-5′-fluoro-7′-(2-fluoro-4-pyridinyl)-5,6-dihydrospiro[1,3-oxazine-4,9′-xanthen]-2′-yl)-5-fluoro-2-pyridinecarboxamide], the IC50 in experiment [1] turned out to be 5.7 nM.
`N#Cc1ccc(C(=O)Nc2ccc3c(c2)[C@@]2(CCOC(N)=N2)c2cc(-c4ccnc(F)c4)cc(F)c2O3)nc1` [Example 108, N-((4S)-2-amino-5′-fluoro-7′-(2-fluoro-4-pyridinyl)-5,6-dihydrospiro[1,3-oxazine-4,9′-xanthen]-2′-yl)-5-cyano-2-pyridinecarboxamide]: the IC50 in experiment [1] worked out at 0.5 nM; on Cathepsin D it was 400 µM.
In the case of `COc1cnc(C(=O)Nc2ccc3c(c2)[C@@]2(CCSC(N)=N2)c2cc(-c4cncc(F)c4)nc(F)c2O3)cn1` [Example 112, N-((5S)-2′-amino-1-fluoro-3-(5-fluoro-3-pyridinyl)-5′,6′-dihydrospiro[chromeno[2,3-c]pyridine-5,4′-[1,3]thiazin]-7-yl)-5-methoxy-2-pyrazinecarboxamide], the results for the IC50 in experiment [2] and in experiment [1] were 2.8 nM and 1.2 nM, respectively.

Values taken from patent publication US9296759B2, “Amino-oxazine and amino-dihydrothiazine compounds as beta-secretase modulators and methods of use” (AMGEN INC., priority 2011, dated 2016).
